Literature values in paper PMC4245168 (ACS Chemical Biology, 2014).

Tested on: parent TPR2A protein
Conditions: MEAVD versus MEEVD, ref [8]; cited from earlier work

Substance: MEAVD
- ΔΔG associated with the difference between MEAVD and MEEVD binding: ~0.6 kcal/mol
